{"source": "patent US7790762B2", "about": "“Compounds and methods for thiol-containing compound efflux and cancer treatment” (National Jewish Health, priority 2002, dated 2010)", "key": {"[1]": {"system": "epithelial cells", "experiment": "Effects of compounds on extracellular GSH transport (Table 3)", "type": "cell-based", "conditions": "Epithelial cell, read-out: % Increase Over Control (extracellular GSH)"}, "[2]": {"system": "A549 cells", "experiment": "Intracellular GSH levels by HPLC-EC in A549 cells", "type": "cell-based, human", "conditions": "for Intracellular GSH levels, % compared to control / Int. GSH % con. / activity at 25 µM: A549, 25 μM", "description": "(§1) Cell lines and culture conditions. Human lung epithelial cancer (A549), human leukemia HL-60 and human prostate (PC-3) tumor cells were purchased from ATCC (Manassas, Va.). A549 and PC-3 cells were grown in Ham's F12 medium (F12) and Kaighn's modification of Ham's F12 medium (F12K) with 2 mM L-glutamine (ATCC), respectively, supplemented with 10% fetal bovine serum (FBS) and 5% pen/strep (10,000 unit, Cellgro). HL-60 cells were grown in Iscove's modified Dulbecco's medium with 4 mM L-glutamine (ATCC) supplemented with 20% FBS and 5% pen/strep. Cell were grown in T-75 flask at 37° C. and 5% CO2 air atmosphere and in 24-well plates for GSH levels and LDH release measurements.\n(§2) Intracellular levels of GSH. Intracellular GSH levels can be determined by HPLC-EC. Cultured cells from 24-well plates were washed once with 1 ml of PBS and then re-suspended in 0.5 ml of distilled water with 40 μM of digitonin (2 mM stock solution in DMSO) for 30 min at room temperature. Then, 50 μl of 10% meta-phosphoric acid were added (1% final concentration), the samples were sonicated for 2 min, centrifuged at 20,000 g for 10 min, and 0.2 ml of supernatant placed in vials for HPLC analysis. […] The flow rate was […]. The retention time for GSH in these conditions was 7.5 min. The HPLC instrument was from ESA, Inc. (Chelmsford, Mass.), equipped with an autosampler (model 540) and a Coul array detector (model 5600A). The potential applied was +0.75 V vs. H/Pd electrode, and the injection volume 5 μl."}, "[3]": {"system": "HL-60 cells", "experiment": "Intracellular GSH levels by HPLC-EC in HL-60 cells", "type": "cell-based, human", "conditions": "24 hours treatment; for activity at 25 µM: Homo sapiens, HL-60, 25 μM, read-out: Int. GSH % con.", "description": "as §1, §2"}, "[4]": {"system": "PC-3 cells", "experiment": "Intracellular GSH levels by HPLC-EC in PC-3 cells", "type": "cell-based, human", "conditions": "PC-3, 25 μM, 24 hours treatment; for activity at 25 µM: Homo sapiens, read-out: Int. GSH % con.", "description": "as §1, §2"}, "[5]": {"system": "A549 cells", "experiment": "Cytotoxicity as LDH release in A549 cells", "type": "cell-based, human", "conditions": "48 hours treatment; for LDH release, % of control at 50 µM: Homo sapiens, A549, 50 μM, read-out: LDH rel. % con.; for LDH rel. % con.: A549, 75 μM", "description": "as §1\n(§3) Assessment of cytotoxicity. In one exemplary method, membrane integrity of A549, HL-60 and PC-3 cells was used as an index of drug-induced cytotoxicity, and was assessed by monitoring the release of cytosolic lactate dehydrogenase (LDH). LDH activity was measured in the culture medium and cell lysates (50 mM HEPES, Triton X-100 0.5%, pH 7) using a plate reader format as previously described (41). Briefly, 5 μl of cell culture supernatant and lysates were incubated with 0.24 mM NADH in a Tris/NaCl pH 7.2 buffer in 96-well plates for 5 min at 25° C. The reaction was started by the addition of 9.8 mM pyruvate and the consumption of NADH followed at 340 nm for 5 min at 30° C. Percent LDH release was calculated by the following: (supernatant LDH/supernatant LDH+lysate LDH)×100."}, "[6]": {"system": "HL-60 cells", "experiment": "Cytotoxicity as LDH release in HL-60 cells", "type": "cell-based, human", "conditions": "for LDH release, % of control at 25 µM: Homo sapiens, HL-60, 25 μM, read-out: LDH rel. % con.; for LDH release, % of control at 25 µM / LDH rel. % con.: 48 hours treatment; for LDH rel. % con.: HL-60, 50 μM", "description": "as §1, §3"}, "[7]": {"system": "PC-3 cells", "experiment": "Cytotoxicity as LDH release in PC-3 cells", "type": "cell-based, human", "conditions": "PC-3, 50 μM, 48 hours treatment; for LDH release, % of control at 50 µM: Homo sapiens, read-out: LDH rel. % con.", "description": "as §1, §3"}, "[8]": {"system": "HL-60 cells", "experiment": "Cellular superoxide by flow cytometry with hydroethidine in HL-60 cells", "type": "cell-based, human", "conditions": "HL-60 cells, pre-treated 30 μM for 2 hours (FIG. 21B)", "description": "Flow cytometry. In one exemplary method, cellular superoxide (O2^−) was measured by flow cytometry analysis using hydroethidine (HE) (30). Untreated and treated HL-60 cells (approximately 10^6) were exposed to HE (1 μM from 1 mM stock solutions in DMSO) for 30 min, then were centrifuged at 3,500 g for 15 min, and washed once with 1 ml ice-cold PBS. Cells were re-suspended in 0.5 ml ice-cold PBS, and HE oxidation product, i.e., ethidium bromide (EB), analyzed within 30 min using the red channel (PE) of a FACSCalibur flow cytometer from Becton Dickinson Biosciences (San Jose, Calif.). The total number of cell counts was 25,000."}}, "note": "Like-named read-outs stand apart in the source and are kept apart here.", "data": [{"compound": "COc1ccc(CCN(C)CCCC(C#N)(c2ccc(OC)c(OC)c2)C(C)C)cc1OC", "note": "(racemic) [Verapamil, (±)-verapamil, reference compound]", "values": [{"measurement": "activation at 10 µM", "setting": "[1]; 10 μM", "value": 113, "unit": "%"}, {"measurement": "activity at 50 µM", "setting": "[2]; Homo sapiens, A549, 50 μM, 24 hours treatment, read-out: Int. GSH % con.", "value": 14, "unit": "%"}, {"measurement": "activity at 25 µM", "setting": "[3]", "value": 63, "unit": "%"}, {"measurement": "activity at 25 µM", "setting": "[4]", "value": 72, "unit": "%"}, {"measurement": "LDH release, % of control at 50 µM", "setting": "[5]", "value": 130, "unit": "%"}, {"measurement": "LDH release, % of control at 25 µM", "setting": "[6]", "value": 125, "unit": "%"}, {"measurement": "LDH release, % of control at 50 µM", "setting": "[7]", "value": 93, "unit": "%"}]}, {"compound": "O=C(O)c1cc(S(=O)(=O)O)ccc1O", "note": "[5-Sulfosalicylic Acid]", "values": [{"measurement": "activation at 50 µM", "setting": "[1]; 50 μM", "value": 142, "unit": "%"}]}, {"compound": "COc1ccc2cc3[n+](cc2c1OC)CCc1cc2c(cc1-3)OCO2", "note": "[Berberine]", "values": [{"measurement": "activation at 100 µM", "setting": "[1]", "value": 170, "unit": "%"}]}, {"compound": "COc1ccc([C@@H]2Sc3ccccc3N(CCN(C)C)C(=O)[C@@H]2OC(C)=O)cc1", "note": "[Diltiazem, reference compound]", "values": [{"measurement": "activation at 100 µM", "setting": "[1]", "value": 119, "unit": "%"}]}, {"compound": "O=c1c(-c2ccc(O)cc2)coc2cc(O)cc(O)c12", "note": "[Genistein]", "values": [{"measurement": "Intracellular GSH levels, % compared to control", "setting": "[2]; 4 h", "value": "34.8 ± 1.1", "unit": "%"}, {"measurement": "Int. GSH % con.", "setting": "[2]; 24 hours treatment", "value": 5, "unit": "% con."}, {"measurement": "Int. GSH % con.", "setting": "[3]; HL-60, 75 μM", "value": 57, "unit": "% con."}, {"measurement": "Int. GSH % con.", "setting": "[4]", "value": 81, "unit": "% con."}, {"measurement": "LDH rel. % con.", "setting": "[5]", "value": 350, "unit": "% con."}, {"measurement": "LDH rel. % con.", "setting": "[6]", "value": 160, "unit": "% con."}, {"measurement": "LDH rel. % con.", "setting": "[7]", "value": 131, "unit": "% con."}]}, {"compound": "O=c1c(O)c(-c2ccc(O)cc2)oc2cc(O)cc(O)c12", "note": "[Kaempferol, 3,5,7,4′quadrahydroxyflavone]", "values": [{"measurement": "Intracellular GSH levels, % compared to control", "setting": "[2]; 4 h", "value": "29.6 ± 0.9", "unit": "%"}, {"measurement": "Int. GSH % con.", "setting": "[2]; 24 hours treatment", "value": 7, "unit": "% con."}, {"measurement": "Int. GSH % con.", "setting": "[3]; HL-60, 50 μM", "value": 75, "unit": "% con."}, {"measurement": "Int. GSH % con.", "setting": "[4]", "value": 77, "unit": "% con."}, {"measurement": "LDH rel. % con.", "setting": "[5]", "value": 173, "unit": "% con."}, {"measurement": "LDH rel. % con.", "setting": "[6]", "value": 128, "unit": "% con."}, {"measurement": "LDH rel. % con.", "setting": "[7]", "value": 115, "unit": "% con."}]}, {"compound": "CN(C)C(=O)CCSC(SCCC(=O)O)c1cccc(/C=C/c2ccc3ccc(Cl)cc3n2)c1", "note": "(centres unmarked) [MK-571, reference compound]", "values": [{"measurement": "activity at 25 µM", "setting": "[2]; Homo sapiens, 2 h, read-out: Intracellular GSH levels, % compared to control", "value": "62.6 ± 4.9", "unit": "%"}, {"measurement": "activity at 25 µM", "setting": "[2]; Homo sapiens, 4 h, read-out: Intracellular GSH levels, % compared to control", "value": "< 5", "unit": "%"}, {"measurement": "activity at 25 µM", "setting": "[2]; Homo sapiens, 24 hours treatment, read-out: Int. GSH % con.", "value": "< 5", "unit": "%"}, {"measurement": "activity at 25 µM", "setting": "[3]", "value": 40, "unit": "%"}, {"measurement": "activity at 25 µM", "setting": "[4]", "value": 41, "unit": "%"}, {"measurement": "LDH release, % of control at 50 µM", "setting": "[5]", "value": 249, "unit": "%"}, {"measurement": "LDH release, % of control at 25 µM", "setting": "[6]", "value": 169, "unit": "%"}, {"measurement": "LDH release, % of control at 50 µM", "setting": "[7]", "value": 143, "unit": "%"}]}, {"compound": "COc1ccccc1C(=O)O", "note": "[Methylsalicylic Acid]", "values": [{"measurement": "activation at 100 µM", "setting": "[1]", "value": 169, "unit": "%"}]}, {"compound": "CC[n+]1ccccc1-c1c2nc(c(-c3cccc[n+]3CC)c3ccc([n-]3)c(-c3cccc[n+]3CC)c3nc(c(-c4cccc[n+]4CC)c4ccc1[n-]4)C=C3)C=C2.[Mn+3]", "note": "[MnTE-2-PyP, Manganese(III) meso-tetrakis(N-ethylpyridinium-2-yl)porphyrin, reference compound]", "values": [{"measurement": "effect on the toxicity of curcumin (25 μM), LDH release", "setting": "[6]; HL-60 cells, 48 hours, compound 25 μM (FIG. 20A)", "value": "attenuated"}, {"measurement": "O2^− levels induced by curcumin after pre-treatment", "setting": "[8]", "value": "lower levels of O2^− were detected"}]}]}
